Assay [1] addresses T1, mutant (K220E/T221E) p38δ (Homo sapiens, UniProt O15264, K220E/T221E).
T1 construct: expressed in transfected cells; host or cells: HeLa cells, Lipofectamine 2000, pcDNA5-p38delta-K220ET221E
T1 sequence (O15264 1-365 K220E/T221E): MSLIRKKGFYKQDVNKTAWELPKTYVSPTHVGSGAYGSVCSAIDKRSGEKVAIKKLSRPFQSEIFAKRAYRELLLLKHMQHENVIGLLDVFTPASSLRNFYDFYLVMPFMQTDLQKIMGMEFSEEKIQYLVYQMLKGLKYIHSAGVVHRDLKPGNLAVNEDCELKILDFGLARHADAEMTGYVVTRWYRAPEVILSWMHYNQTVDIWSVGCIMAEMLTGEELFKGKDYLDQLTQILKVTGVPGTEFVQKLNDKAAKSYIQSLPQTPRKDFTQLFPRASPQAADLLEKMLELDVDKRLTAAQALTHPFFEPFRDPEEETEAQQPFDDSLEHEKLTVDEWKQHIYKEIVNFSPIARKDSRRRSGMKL
As to the kind of experiment: Degradation of transfected mutant p38δ in HeLa cells. The class given is cell-based. Conditions: 24 h. How it is done:
(§1) Mutant p38δ was generated by QuikChange Lightning site-directed mutagenesis kit (Agilent). Transfections were carried out using Lipofectamine 2000 reagent (Invitrogen) in HeLa cells seeded at 3 × 10^5 cells per six well. One microgram of FLAG-containing pcDNA5-p38delta-WT or pcDNA5-p38delta-K220ET221E was used per transfection. Opti-MEM media were changed after 6 h to DMEM (1 × ), at which point the indicated compounds were added for 24 h before harvesting.

In another assay the target is T2, endogenous p38δ (Homo sapiens, UniProt O15264+P40337).
T2 construct: endogenous in cells; host or cells: MDA-MB-231 whole-cell lysate (p38δ); GST-VBC bait made in E. coli
Description: Ternary complex pull-down from MDA-MB-231 whole-cell lysate. Type of assay: binding. The procedure:
Glutathione Sepharose 4B (Glutathione-conjugated beads in a slurry containing 20% ethanol) were washed twice with 1X wash buffer (50 mM HEPES pH 7.5, 150 mM NaCl, 1 mM DTT, 0.01% NP40, 5 mM MgCl2, 10% Glycerol) and then blocked for 1 h at room temperature with 10% bovine serum albumin (BSA) in wash buffer. The beads were then washed again three times with wash buffer and then purified GST-VBC (stable form of VHL complexed with EloB/EloC, described above) was immobilized for 1 h at 4 °C at 3.6 pmole µL^–1 of beads. The beads were then washed three times with wash buffer, resuspended, divided into two equal volumes, and p38α or p38δ protein was added. The bead:p38 mixture was then aliquoted to separate tubes and PROTAC was added at the indicated concentration (PROTACs were intermediately diluted in 10% DMSO and 0.25% CHAPS). This mixture was incubated at 4 °C for 2 h. The beads were washed three times with 10 column volumes of wash buffer and then eluted with SDS loading buffer at 75 °C for 10 min.
For experiments in which the input substrate is a WCL (Fig. 4b), the sample was prepared as follows. Five 150 mm dishes of confluent MDA-MB-231 cells were washed with 1X PBS, pH 7.4, and then dissociated using enzyme-free PBS-based cell dissociation buffer (ThermoFisher Scientific) for 10 min at 37 °C. […]

For a further assay, the system named is JNK2. As to the kind of experiment: JNK2 degradation, western blot in MDA-MB-231 cells. The class given is cell-based, human. Conditions: 0.025-2.5 µM. How it is done:
[…] once with ice-cold PBS (1 × ), followed by lysis in buffer containing 25 mM Tris [pH 7.5], 0.25% sodium deoxycholate, 1% Triton X-100, supplemented with 1X protease inhibitor cocktail (Roche), and phosphatase inhibitors (10 mM NaF, 1 mM Na3VO4, and 20 mM β-glycerophosphate), unless otherwise noted. Lysates were spun at 14,000 × g for 10 min at 4 °C and supernatant was evaluated for protein content using a Pierce BCA Protein Assay (ThermoFisher Scientific). In all experiments, 25–50 μg of protein was loaded onto 10% SDS-PAGE gels or 4–20% Criterion TGX precast gradient gels (Bio-Rad), transferred to nitrocellulose membranes, and probed with the specified antibodies overnight at 4 °C in 1X TBS-Tween (Tris-buffered saline plus 0.02% Tween 20) containing 5% non-fat milk. Immunoblots were visualized using a Bio-Rad ChemiDoc imaging instrument and subsequently processed and quantified using the accompanying Bio-Rad ImageLab software. See Supplementary Figure 8 for uncropped scans of western blots shown in the main text figures.
Supplementary Figure 4 cont.
Supplementary Figure 4. Characterization of M APK fam ily degradation selectivity (related to Figures 1-2). (a) p38 M APK fam ily m em bers (α, β, δ, γ) were aligned using the T-Coffee multiple sequence alignm ent server. […] Note: JNK1 and JNK2 are expressed as two alternatively-spliced form s. […]

A further assay addresses T3, wild-type p38δ (Homo sapiens, UniProt O15264).
T3 construct: expressed in transfected cells; host or cells: HeLa
T3 sequence (O15264 1-365): T1 sequence (O15264 1-365 K220E/T221E) with E220K, E221T
As to the kind of experiment: Degradation of transfected wild-type p38δ in HeLa cells. The class given is cell-based. Conditions: 24 h. The procedure:
as §1

Substitutions are numbered along the chain they refer to. “Also recorded” adds a separate entry of the source.

T2 sequence (O15264 whole entry): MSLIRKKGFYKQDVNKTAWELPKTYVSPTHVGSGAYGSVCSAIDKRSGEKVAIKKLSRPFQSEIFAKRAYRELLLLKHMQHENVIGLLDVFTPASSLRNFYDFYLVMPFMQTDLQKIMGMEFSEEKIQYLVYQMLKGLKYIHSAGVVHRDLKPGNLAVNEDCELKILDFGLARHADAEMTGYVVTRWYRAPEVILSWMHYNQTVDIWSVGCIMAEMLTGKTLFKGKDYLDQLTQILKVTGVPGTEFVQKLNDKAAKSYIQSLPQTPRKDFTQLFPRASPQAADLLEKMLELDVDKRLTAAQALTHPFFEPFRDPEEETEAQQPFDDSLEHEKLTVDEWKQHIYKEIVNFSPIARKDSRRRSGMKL
T2 sequence (P40337 whole entry): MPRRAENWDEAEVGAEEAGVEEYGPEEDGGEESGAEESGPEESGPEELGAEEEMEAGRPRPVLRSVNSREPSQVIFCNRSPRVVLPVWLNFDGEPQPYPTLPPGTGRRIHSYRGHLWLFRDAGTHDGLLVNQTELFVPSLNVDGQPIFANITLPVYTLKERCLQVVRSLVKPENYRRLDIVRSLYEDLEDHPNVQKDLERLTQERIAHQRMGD
T2 sequence (Q15370 whole entry partner): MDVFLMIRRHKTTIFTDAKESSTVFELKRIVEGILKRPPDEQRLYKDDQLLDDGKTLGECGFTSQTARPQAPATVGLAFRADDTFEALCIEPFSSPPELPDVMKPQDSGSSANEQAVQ
T2 sequence (Q15369 whole entry partner): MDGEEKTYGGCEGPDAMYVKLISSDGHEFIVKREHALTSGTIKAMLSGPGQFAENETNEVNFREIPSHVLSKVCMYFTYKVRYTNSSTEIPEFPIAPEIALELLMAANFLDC

Consider `COc1cc2c(Oc3ccc(NC(=O)C4(C(=O)Nc5ccc(F)cc5)CC4)cc3F)ccnc2cc1OCCCCOCCCCOCC(=O)N[C@H](C(=O)N1C[C@H](O)C[C@H]1C(=O)NCc1ccc(-c2scnc2C)cc1)C(C)(C)C` [SJFα], for which the “degradation of double-mutant (K220E/T221E) p38δ” value in assay [1] was “able to degrade; also recorded: potently degrades”. In addition, the “enrichment of endogenous p38δ on GST-VBC bait” value on endogenous p38δ was “stable ternary complex formation was greatly reduced”. In the assay with JNK2, the JNK2 degradation entry is on record as “neither PROTAC degrades”. The “degradation of wild-type p38δ” value at wild-type p38δ is “not wild-type p38δ”.

For the compound `COc1cc2c(Oc3ccc(NC(=O)C4(C(=O)Nc5ccc(F)cc5)CC4)cc3F)ccnc2cc1OCCOCCOCCOc1cc(-c2scnc2C)ccc1CNC(=O)[C@@H]1C[C@@H](O)CN1C(=O)[C@H](C(C)C)N1Cc2ccccc2C1=O` [SJFδ], the “degradation of double-mutant (K220E/T221E) p38δ” value in assay [1] is “able to degrade”. Moreover, the “enrichment of endogenous p38δ on GST-VBC bait” value on endogenous p38δ is “strongly enriches for endogenous p38δ”. Also, the JNK2 degradation entry with JNK2 is “neither PROTAC degrades”. The “degradation of wild-type p38δ” value at wild-type p38δ is listed as “able to eliminate wild-type p38δ”.

The values above are taken from PMC6328587 (Nature Communications, 2019).
